According to PMC7782552, “Activation of mitochondrial TUFM ameliorates metabolic dysregulation through coordinating autophagy induction” (Communications Biology, 2021):

Molecular target: T1, TUFM (mitochondrial elongation factor Tu) (Mus musculus, UniProt Q8BFR5)
T1 construct: endogenous protein in 3T3-L1 cell lysate
Assay: DARTS (pronase protection) immunoblot, dose-dependent, and DARTS LC-MS/MS in 3T3-L1 lysate
Assay type: biochemical

EC50: 14.4 µM
Structure (SMILES): COc1ccc(-c2oc3cc(O)cc(O)c3c(=O)c2O)cc1 [Kaem, kaempferide]
